Assay results as given in PubChem BioAssay (NCI).
Values joined by “and” are separate entries in the source; they are usually repeats but may differ in a detail not shown here. Equal values may be shown once.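 Each compound was tested at five concentrations against cells in 96-well plates for 48 hours. TGI: total growth inhibition.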

Columns and labels:
Test in all cases: growth of human tumour cells (NCI), 48 h
[1] = system: 786-0 renal
[2] = system: COLO 205 colon
[3] = system: HOP-62 NSCLC
[4] = system: HT29 colon
[5] = system: KM12 colon
[6] = system: MDA-MB-435
[7] = system: MOLT-4 leukemia
[8] = system: RXF 393 renal
[9] = system: SF-295 CNS
[10] = system: SF-539 CNS
[11] = system: SN12C renal
[12] = system: UACC-257 melanoma
[13] = system: MDA-MB-231 breast
[14] = system: SK-MEL-2 melanoma

SMILES: CON(C)C(=O)C(Cc1ccccc1)NC(=O)OC(C)(C)C (stereo not drawn)
- TGI [1]: > 100 µM
- TGI [2]: > 100 µM
- TGI [3]: > 100 µM
- TGI [4]: > 100 µM
- TGI [5]: > 100 µM
- TGI [6]: > 100 µM
- TGI [7]: > 100 µM
- TGI [8]: > 100 µM
- TGI [9]: > 100 µM
- TGI [10]: > 100 µM
- TGI [11]: > 100 µM
- TGI [12]: > 100 µM

SMILES: [N-]=[N+]=NC1(N=[N+]=[N-])C(=O)NN=C(c2ccccc2)C1=O (stereo not drawn)
- TGI [1]: > 100 µM
- TGI [2]: > 100 µM
- TGI [3]: > 100 µM
- TGI [4]: > 100 µM
- TGI [5]: > 100 µM
- TGI [13]: > 100 µM
- TGI [6]: 42.6 µM
- TGI [7]: 73.6 µM
- TGI [8]: > 100 µM
- TGI [9]: > 100 µM
- TGI [10]: > 100 µM
- TGI [11]: > 100 µM
- TGI [12]: > 100 µM

SMILES: CC(N)Cc1cccc(C(F)(F)F)c1 (stereo not drawn)
- TGI [1]: > 100 µM
- TGI [2]: > 100 µM
- TGI [3]: > 100 µM
- TGI [4]: > 100 µM
- TGI [5]: > 100 µM
- TGI [8]: > 100 µM
- TGI [9]: > 100 µM
- TGI [10]: > 100 µM
- TGI [14]: > 100 µM
- TGI [11]: > 100 µM
- TGI [12]: > 100 µM

SMILES: O=[N+]([O-])C(/C(Cl)=C(/Cl)N1CCCCC1)=C1\NCCO1
- TGI [1]: > 100 µM
- TGI [2]: > 100 µM
- TGI [3]: > 100 µM
- TGI [4]: > 100 µM
- TGI [5]: > 100 µM
- TGI [13]: > 100 µM
- TGI [6]: > 100 µM
- TGI [7]: > 100 µM
- TGI [9]: > 100 µM
- TGI [10]: > 100 µM
- TGI [14]: > 100 µM
- TGI [11]: > 100 µM
- TGI [12]: > 100 µM

SMILES: O=C1CN(c2cccc(C(F)(F)F)c2)C(=O)CN1NCNN1CC(=O)N(c2cccc(C(F)(F)F)c2)CC1=O
- TGI [1]: > 100 µM
- TGI [2]: > 100 µM
- TGI [3]: > 100 µM
- TGI [4]: > 100 µM
- TGI [5]: > 100 µM
- TGI [13]: > 100 µM
- TGI [6]: > 100 µM
- TGI [7]: > 100 µM
- TGI [9]: > 100 µM
- TGI [10]: > 100 µM
- TGI [11]: > 100 µM
- TGI [12]: > 100 µM

SMILES: CCOC(=O)C(NNS(=O)(=O)c1ccc(C)cc1)S(=O)(=O)C(F)(F)C(F)(F)C(F)(F)C(F)(F)F (stereo not drawn)
- TGI [1]: > 100 µM
- TGI [2]: > 100 µM
- TGI [3]: > 100 µM
- TGI [4]: > 100 µM
- TGI [5]: > 100 µM
- TGI [13]: > 100 µM
- TGI [6]: > 100 µM
- TGI [7]: > 100 µM
- TGI [9]: > 100 µM
- TGI [10]: > 100 µM
- TGI [14]: > 100 µM
- TGI [11]: > 100 µM
- TGI [12]: > 100 µM

SMILES: COC(=O)c1cc(C)ccc1/C=C1\Cc2cc(C)c(C)cc2C1=O
- TGI [1]: > 100 µM
- TGI [3]: > 100 µM
- TGI [4]: > 100 µM
- TGI [5]: > 100 µM
- TGI [13]: > 100 µM
- TGI [7]: > 100 µM
- TGI [8]: > 100 µM
- TGI [9]: > 100 µM
- TGI [10]: > 100 µM
- TGI [14]: > 100 µM
- TGI [11]: > 100 µM
- TGI [12]: > 100 µM

SMILES: COC(=O)c1cc(NC2OCC(OC(C)=O)C(OC(C)=O)C2OC(C)=O)nc(SC)c1C(=O)OC (stereo not drawn)
- TGI [1]: > 100 µM
- TGI [2]: > 100 µM
- TGI [3]: > 100 µM
- TGI [4]: > 100 µM
- TGI [5]: > 100 µM
- TGI [13]: > 100 µM
- TGI [6]: > 100 µM
- TGI [7]: > 100 µM
- TGI [9]: > 100 µM
- TGI [10]: > 100 µM
- TGI [14]: > 100 µM
- TGI [11]: > 100 µM
- TGI [12]: > 100 µM

SMILES: CC(C)[Si](OC12CCC(CC1O)CC2C(=O)O)(C(C)C)C(C)C (stereo not drawn)
- TGI [1]: 26.8 µM
- TGI [2]: 59.2 µM
- TGI [3]: 27.5 µM
- TGI [4]: 26.8 µM
- TGI [5]: 26.2 µM
- TGI [13]: 38 µM
- TGI [6]: 31.8 µM
- TGI [7]: > 100 µM
- TGI [9]: 29.2 µM
- TGI [10]: > 100 µM
- TGI [14]: 27.7 µM
- TGI [11]: > 100 µM
- TGI [12]: 36.5 µM

SMILES: CCC1(O)CC(OC2CC(N(C)C)C(OC3CC(O)C(OC4OC(C)C(=O)C=C4N)C(C)O3)C(C)O2)c2c(O)c3c(c(O)c2C1C(=O)OC)C(=O)c1cccc(O)c1C3=O (stereo not drawn)
- TGI [1]: 0.133 µM and 0.147 µM
- TGI [2]: 0.116 µM
- TGI [3]: 0.855 µM
- TGI [4]: 0.215 µM
- TGI [5]: 0.2 µM
- TGI [13]: 0.296 µM
- TGI [6]: 0.107 µM
- TGI [10]: 0.236 µM
- TGI [14]: 0.0272 µM
- TGI [11]: 1.13 µM

SMILES: NC(=S)SCCC(=O)O
- TGI [1]: > 100 µM
- TGI [2]: > 100 µM
- TGI [3]: > 100 µM
- TGI [4]: > 100 µM
- TGI [5]: > 100 µM
- TGI [13]: > 100 µM
- TGI [6]: > 100 µM
- TGI [7]: > 100 µM
- TGI [9]: > 100 µM
- TGI [10]: > 100 µM
- TGI [14]: > 100 µM
- TGI [11]: > 100 µM
- TGI [12]: > 100 µM

SMILES: COc1cc(-c2c[nH]c3ccccc23)nc(-c2c[nH]c3ccccc23)n1
- TGI [1]: 4.67 µM
- TGI [2]: 20.8 µM
- TGI [3]: 21 µM
- TGI [4]: 13.4 µM
- TGI [5]: 16.2 µM
- TGI [13]: 8 µM
- TGI [6]: 18.6 µM
- TGI [7]: 15.3 µM
- TGI [9]: 12.7 µM
- TGI [10]: 19.8 µM
- TGI [14]: 16.2 µM
- TGI [12]: 20.9 µM

SMILES: CN(C(=O)OC(C)(C)C)[C@H]1CCCC[C@H]1N1CCCC1
- TGI [1]: > 100 µM
- TGI [2]: > 100 µM
- TGI [3]: > 100 µM
- TGI [4]: > 100 µM
- TGI [5]: > 100 µM
- TGI [13]: > 100 µM
- TGI [6]: > 100 µM
- TGI [7]: > 100 µM
- TGI [9]: > 100 µM
- TGI [10]: > 100 µM
- TGI [14]: > 100 µM
- TGI [11]: > 100 µM
- TGI [12]: > 100 µM

SMILES: Cn1c(=O)n(-c2c3ccccc3c(Cl)c3ccccc23)n(C(C)(C)C)c1=O
- TGI [1]: > 100 µM
- TGI [2]: > 100 µM
- TGI [3]: > 100 µM
- TGI [4]: > 100 µM
- TGI [5]: > 100 µM
- TGI [13]: > 100 µM
- TGI [6]: > 100 µM
- TGI [7]: > 100 µM
- TGI [9]: > 100 µM
- TGI [10]: > 100 µM
- TGI [14]: > 100 µM
- TGI [11]: > 100 µM
- TGI [12]: > 100 µM

SMILES: CC(=O)c1ccc(-c2oc(-c3ccccc3)cc2-c2ccc3c(c2)OCO3)s1
- TGI [1]: > 100 µM
- TGI [2]: > 100 µM
- TGI [3]: > 100 µM
- TGI [4]: > 100 µM
- TGI [6]: 6.08 µM
- TGI [7]: > 100 µM
- TGI [8]: > 100 µM
- TGI [9]: > 100 µM
- TGI [10]: > 100 µM
- TGI [11]: > 100 µM
- TGI [12]: > 100 µM

SMILES: NC(=O)/N=C(\N)NC(=O)c1ccccc1
- TGI [1]: > 100 µM
- TGI [3]: > 100 µM
- TGI [4]: > 100 µM
- TGI [5]: > 100 µM
- TGI [13]: > 100 µM
- TGI [6]: > 100 µM
- TGI [7]: > 100 µM
- TGI [8]: > 100 µM
- TGI [9]: > 100 µM
- TGI [14]: > 100 µM
- TGI [11]: > 100 µM
- TGI [12]: > 100 µM

SMILES: COc1ccc(C2Oc3c(cccc3OC)C=C2[N+](=O)[O-])cc1OC (stereo not drawn)
- TGI [1]: 19.7 µM
- TGI [2]: 73.7 µM
- TGI [3]: > 100 µM
- TGI [4]: > 100 µM
- TGI [5]: 34 µM
- TGI [13]: > 100 µM
- TGI [6]: 8.3 µM
- TGI [7]: > 100 µM
- TGI [8]: 8.76 µM
- TGI [9]: 71.7 µM

SMILES: C[C@]12CCC3c4ccc(OC(=O)c5ccccc5)cc4CC[C@H]3C1CC[C@@H]2OC(=O)C12OC1CCC2=O (stereo partly drawn)
- TGI [1]: 6.4 µM
- TGI [2]: 7.49 µM
- TGI [3]: 11.9 µM
- TGI [4]: 7.55 µM
- TGI [5]: 13.6 µM
- TGI [7]: 5.78 µM
- TGI [8]: 4.51 µM
- TGI [9]: 28.7 µM
- TGI [10]: 4.31 µM
- TGI [14]: 16 µM
- TGI [11]: 11.9 µM
- TGI [12]: 14.8 µM
